Test results reported in US11976083B2, “Inhibitors of peptidylarginine deiminases” (Gilead Sciences, Inc., priority 2020, dated 2024).

target: T1, human PAD4 (Homo sapiens, UniProt Q9UM07); assay: In vitro PAD4 BAEE biochemical assay; details: BAEE substrate 3 mM, 5 nM PAD4, 2 mM calcium chloride; geometric mean of multiple experiments
T1 construct: human PAD4 (NM_012387), A2-P663, was PCR amplified; His-SUMO (N, cleaved yes); made in house; host or cells: E. coli BL21(DE3)
Procedure, shortened: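 Ammonia produced by BAEE deimination (3 mM substrate, 2 h, 25 °C) was read as fluorescent isoindole after o-phthalaldehyde/DTT derivatization, ex 405 nm/em 535 nm. Human PAD4 at 5 nM final, 2 mM calcium, pH 7.6 MOPS; compound preincubated 30 min. IC50s, normalized to BB-Cl-Amidine and DMSO controls, were geometric-mean averaged.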

T1 sequence (Q9UM07 2-663): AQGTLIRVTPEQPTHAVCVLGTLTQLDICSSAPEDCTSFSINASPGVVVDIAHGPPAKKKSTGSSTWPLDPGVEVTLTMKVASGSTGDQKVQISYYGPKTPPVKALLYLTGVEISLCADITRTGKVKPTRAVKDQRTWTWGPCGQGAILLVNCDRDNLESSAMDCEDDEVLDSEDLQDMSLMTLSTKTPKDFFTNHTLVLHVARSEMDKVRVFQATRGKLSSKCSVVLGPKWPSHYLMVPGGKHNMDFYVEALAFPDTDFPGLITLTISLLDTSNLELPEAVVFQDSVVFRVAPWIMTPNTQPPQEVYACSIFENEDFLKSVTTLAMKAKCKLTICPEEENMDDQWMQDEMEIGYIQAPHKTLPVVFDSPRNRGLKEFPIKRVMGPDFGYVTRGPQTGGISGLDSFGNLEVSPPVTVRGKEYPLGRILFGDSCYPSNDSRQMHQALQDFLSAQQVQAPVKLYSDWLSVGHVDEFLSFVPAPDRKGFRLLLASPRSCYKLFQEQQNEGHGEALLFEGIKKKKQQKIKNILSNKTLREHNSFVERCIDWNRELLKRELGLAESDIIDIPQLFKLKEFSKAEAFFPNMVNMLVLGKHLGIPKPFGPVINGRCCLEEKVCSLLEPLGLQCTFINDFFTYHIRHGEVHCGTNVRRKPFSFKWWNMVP

| SMILES | IC50 [nM] |
| --- | --- |
| COc1cc(C(=O)N[C@H]2CNCC[C@@H]2F)cc2nc(-c3cc4ccc5nc4n3CCCCC[C@@H]3C[C@@H]3C(=O)N[C@@H]5C)n(C)c12 [Example 523, ~{N}-[(3~{S},4~ {S})-4-fluoro-3-piperidyl]-7-methoxy-1-methyl-2-[(2~{R},5~ {S},7~{R})-2-methyl-4-oxo-3,13,19-triazatetracyclo [11.5.2.0^{5,7}.0^{16,20}]icosa-1(19),14,16(20), 17-tetraen-14-yl] benzimidazole-5-carboxamide] | 205 |
| COc1cc(C(=O)N2CC[C@@H](OC)[C@@H](N)C2)cc2nc(-c3cc4ccc5nc4n3CCCCC[C@@H]3C[C@@H]3C(=O)N[C@@H]5C)n(C)c12 [Example 524, (2~{R},5~{S},7~{R})-14-[5-[(3~{S},4~{R})-3-amino-4-methoxy-piperidine-1-carbonyl]-7-methoxy-1-methyl-benzimidazol-2-yl]-2-methyl-3,13,19-triazatetracyclo[11.5.2.0^ {5,7}.0^{16,20}]icosa-1(19),14,16(20),17-tetraen-4-one] | 388 |
| COc1cc(C(=O)N2CC[C@@H](OC)[C@@H](N)C2)cc2nc(-c3cc4ccc5nc4n3CCCCC[C@H]3C[C@H]3C(=O)N[C@@H]5C)n(C)c12 [Example 525, (2~{R},5~{R},7~ {S})-14-[5-[(3~{S},4~{R})-3-amino-4-methoxy-piperidine-1-carbonyl]-7-methoxy-1-methyl-benzimidazol-2-yl]-2-methyl-3,13,19-triazatetracyclo [11.5.2.0^{5,7}.0^{16,20}] icosa-1(19),14,16(20), 17-tetraen-4-one] | 78 |

Results, then the molecule that gave them:

| IC50 [nM] | SMILES |
| --- | --- |
| 35 | C[C@H]1NC(=O)[C@@H]2C[C@@H]2CCCCCn2c(-c3nc4cc(C(=O)N[C@H]5CNCC[C@@H]5F)c(F)cc4n3C3CC3)cc3ccc1nc32 [Example 520, 1-cyclopropyl-6-fluoro-~ {N}-[(3~{S},4~{S})-4-fluoro-3-piperidyl]-2-[(2~{R},5~{R},7~{S})-2-methyl-4-oxo-3,13,19-triazatetracyclo[11.5.2.0^ {5,7}.0^{16,20}]icosa-1(19),14,16(20),17-tetraen-14-yl]benzimidazole-5-carboxamide] |
| 76 | C[C@H]1NC(=O)[C@@H]2C[C@@H]2C/C=C\CCn2c(-c3nc4cc(C(=O)N[C@H]5CNCC[C@@H]5F)c(F)cc4n3C)cc3ccc1nc32 [Example 521, 6-fluoro-~{N}-[(3~ {S},4~{S})-4-fluoro-3-piperidyl]-1-methyl-2-[(2~{R},5~{R},7~ {S},9~{Z})-2-methyl-4-oxo-3,13,19-triazatetracyclo[11.5.2.0^ {5,7}.0^{16,20}]icosa-1(19),9,14,16(20), 17-pentaen-14-yl] benzimidazole-5-carboxamide] |
| 40 | C[C@H]1NC(=O)[C@@H]2C[C@@H]2CCCCCn2c(-c3nc4cc(C(=O)N[C@H]5CNCC[C@@H]5F)c(F)cc4n3C)cc3ccc1nc32 [Example 522, 6-fluoro-~{N}-[(3~ {S},4~{S})-4-fluoro-3-piperidyl]-1-methyl-2-[(2~{R},5~{R},7~{S})-2-methyl-4-oxo-3,13,19-triazatetracyclo[11.5.2.0^ {5,7).0^{16,20}]icosa-1(19),14,16(20), 17-tetraen-14-yl] benzimidazole-5-carboxamide] |
| 65 | COc1cc(C(=O)N[C@H]2CNC[C@H](O)C2)cc2nc(-c3cc4ccc5nc4n3CCCCCCC(C)(C)C(=O)N[C@@H]5C)n(C)c12 [Example 526, ~{N}-[(3~{R},5~{R})-5-hydroxy-3-piperidyl]-7-methoxy-1-methyl-2-[(11~{R})-8,8,11-trimethyl-9-oxo-1,10,19-triazatricyclo [10.5.2.0^{15,18}]nonadeca-12(19),13,15(18),16-tetraen-17-yl]benzimidazole-5-carboxamide] |
